Source: patent publication US9708325B2, “Sulfonimidoylpurinone compounds and derivatives for the treatment and prophylaxis of virus infection” (Hoffmann-La Roche Inc., priority 2015, dated 2017)
Values after ≈ are worked out from the molar mass of the structure shown. Where two headings read alike, the source gives them in different places.

Experiments:
human TLR7 = human TLR7 (Homo sapiens (Human), UniProt Q9NYK1); assay: HEK-Blue-hTLR7 cells assay (SEAP reporter); type: cell-based; settings: 20 hrs, read-out: HEK-Blue-hTLR7 (EC50 (μM))
Description: (§1) A stable HEK-Blue-hTLR7 cell line was purchased from InvivoGen (Cat.#: hkb-htlr7, San Diego, Calif., USA). These cells were designed for studying the stimulation of human TLR7 by monitoring the activation of NF-κB. […] Therefore the reporter expression was regulated by the NF-κB promoter upon stimulation of human TLR7 for 20 hrs. The cell culture supernatant SEAP reporter activity was determined using QUANTI-Blue™ kit (Cat.#: rep-qb1, Invivogen, San Diego, Ca, USA) at a wavelength of 640 nm, a detection medium that turns purple or blue in the presence of alkaline phosphatase.
(§2) HEK-Blue-hTLR7 cells were incubated at a density of 250,000˜450,000 cells/mL in a volume of 180 μL in a 96-well plate in Dulbecco's Modified Eagle's medium (DMEM) containing 4.5 g/L glucose, 50 U/mL penicillin, […], […], 2 mM L-glutamine, 10% (V/V) heat-inactivated fetal bovine serum for 24 hrs. Then the HEK-Blue-hTLR-7 cells were incubated with addition of 20 μL test compound in a serial dilution in the presence of final DMSO at 1% and perform incubation under 37° C. in a CO2 incubator for 20 hrs. Then 20 μL of the supernatant from each well was incubated with 180 μL Quanti-blue substrate solution at 37° C. for 2 hrs and the absorbance was read at 620˜655 nm using a spectrophotometer. The signalling pathway that TLR7 activation leads to downstream NF-κB activation has been widely accepted, and therefore similar reporter assay was also widely used for evaluating TLR7 agonist (Tsuneyasu Kaisho and Takashi Tanaka, Trends in Immunology, Volume 29, Issue 7, July 2008, […]; Hiroaki Hemmi et al, Nature Immunology 3, 196-200 (2002)).

human TLR8 = human TLR8 (Homo sapiens (Human), UniProt Q9NR97); assay: HEK-Blue-hTLR8 cells assay and selectivity index; type: cell-based; settings: for Selective index: EC50(TLR8) value/EC50(TLR7) value
Description: as §1, with “HEK-Blue-hTLR8” for “HEK-Blue-hTLR7”, “HEK-Blue-htlr8,” for “hkb-htlr7,”, “TLR8” for “TLR7”
as §2, with “HEK-Blue-hTLR8 cells” for “HEK-Blue-hTLR7 cells”, “the HEK-Blue-hTLR8” for “the HEK-Blue-hTLR-7”, “2 hours” for “2 hrs”, “that TLR8” for “that TLR7”, “evaluating TLR8” for “evaluating TLR7”
The ratio of TLR8 agonism activity compared to TLR7 agonism activity was defined as the selectivity index (EC50 (TLR8) value/EC50(TLR7) value) and calculated accordingly.

LYSA solubility = type: physicochemical; settings: for solubility thermodynamic: 0.05 M phosphate buffer, pH 6.5, aqueous buffer, thermodynamic from solid; for LYSA: 0.05 M phosphate buffer (pH 6.5)
Description: LYSA solubility assay is used to determine the aqueous solubility of a compound. Samples were prepared in duplicate from 10 mM DMSO stock solution. […] After one night, the solutions were filtered using a microtiter filter plate. Then the filtrate and its 1/10 dilution were analyzed by HPLC-UV.

[1] = Single dose PK after 1 mg/kg intravenous dosing to rat; type: in vivo, Male Wister-Han Rats; settings: IV 1 mpk; for concentration at 4 h: read-out: Mean plasma concentration
Description: The single dose PK in Male Wister-Han Rats was performed to assess pharmacokinetic properties of tested compounds. Two groups of animals were dosed via bolus intravenous (IV) of the respective compound. Blood samples (approximately 20 μL) were collected via Jugular vein or an alternate site at 5 min, 15 min, 30 min, 1 hr, 2 hr, 4 hr, 7 hr and 24 hr post-dose for IV group. Blood samples were placed into tubes containing EDTA-K2 anticoagulant and centrifuged at 5000 rpm for 6 min at 4° C. to separate plasma from the samples. Following centrifugation, the resulting plasma was transferred to clean tubes for bioanalysis on LC/MS/MS. The pharmacokinetic parameters were calculated using non-compartmental module of WinNonlin® Professional 6.2. […] Therefore, compounds of present invention potentially could lead to less dose frequency and lower dose in clinical application.

[2] = test system: Salmonella typhimurium tester strains (TA1535, TA97, TA98, TA100, and TA102); assay: Ames microsuspension assay; type: cell-based; settings: five strains, absence and presence of S9
Description: The Ames microsuspension assay examines if a compound causes DNA mutations. The method was based on a modified pre-incubation version described by Kado et al (see references: B. N. Ames, J. McCann, E. Yamasaki, Mutation Res. 1975, 31, 347-364 N.Y. Kado, D. Langley, and E. Eisenstadt, Mutation Res. 1983, 121, 25-32). Five Salmonella typhimurium tester strains (TA1535, TA97, TA98, TA100, and TA102) were treated with the test compound in absence and in presence of an exogenous metabolic activation system (S9). The bacteria were pre-incubated for 1 h, the pre-incubation volume is 210 μL (100 μL of overnight culture, 100 μL of S9 mix (10% S9) or 100 μL phosphate buffer, and 10 μL test compound solution). The overnight cultures were resuspended for the test in cold phosphate buffer. The S9 mix contains potassium chloride, magnesium chloride, sodium phosphate buffered saline, NADP^+ and glucose-6-phosphate. The test tubes are incubated and shaken for 60 minutes at 37° C. 2.2 mL soft agar supplemented with L-histidine and biotin was added afterwards and the content of the tubes were mixed and poured on Vogel-Bonner minimal agar plates.
Three replicate plates for the test compound and negative control or two replicate plates for the positive controls were incubated at 37° C., upside down, for 2 days. Colonies were counted electronically using an automatic image analysis system after having inspected the background lawn for signs of toxicity.
S9 is an in vitro metabolic system which is obtained from liver homogenates by centrifuging them at 9000 g for 20 minutes. It contains CYP450 isoforms, phase-II metabolic enzymes, etc. In the Ames microsuspension assay test, S9 is used to assess mutagenicity of compounds, some of which require metabolic activation to become mutagenic.
Criteria of the Ames microsuspension assay: a positive result is defined as a reproducible, dose-related increase in the number of revertant colonies in at least one of the strains. For TA1535 and TA98, the positive threshold is a 2-fold increase over control. For TA97, TA100 and TA102, the threshold is a 1.5-fold increase.

hERG channel = hERG channel (Homo sapiens (Human), UniProt Q12809); assay: hERG channel inhibition assay (patch-clamp, CHOhERG cells); type: cell-based
Description: The hERG K^+ channels were cloned in humans and stably expressed in a CHO (Chinese hamster ovary) cell line. CHOhERG cells were used for patch-clamp (voltage-clamp, whole-cell) experiments. Cells were stimulated by a voltage pattern to activate hERG channels and conduct IKhERG currents (rapid delayed outward rectifier potassium current of the hERG channel). […] Thereafter, the test compound was added to the preparation at increasing concentrations. For each concentration, an attempt was made to reach a steady-state effect, usually, this was achieved within 3-10 min at which time the next highest concentration was applied. The amplitude and kinetics of IKhERG are recorded in each concentration of the drug which were compared to the control values (taken as 100%). (references: Redfern W S, Carlsson L, Davis A S, Lynch W G, MacKenzie I, Palethorpe S, Siegl P K, Strang I, Sullivan A T, Wallis R, Camm A J, Hammond T G. 2003; Relationships between preclinical cardiac electrophysiology, clinical QT interval prolongation and torsade de pointes for a broad range of drugs: evidence for a provisional safety margin in drug development. Cardiovasc. Res. 58:32-45, Sanguinetti M C, Tristani-Firouzi M. 2006; hERG potassium channels and cardiac arrhythmia. Nature 440:463-469, Webster R, Leishman D, Walker D. 2002; Towards a drug concentration effect relationship for QT prolongation and torsades de pointes. Curr. Opin. Drug Discov. Devel. 5:116-26).

[3] = Metabolic stability in human liver microsomes; settings: 1 μM test compound, 0.5 mg/mL microsomal protein; 6.15 mL/min/kg is the limitation of assay sensitivity
Description: The human microsomal stability assay is used for early assessment of metabolic stability of a test compound in human liver microsomes.
Human liver microsomes (Cat. NO.: 452117, Corning, USA; Cat. NO.: H2610, Xenotech, USA) were preincubated with test compound for 10 minutes at 37° C. in 100 mM potassium phosphate buffer, pH 7.4. The reactions were initiated by adding NADPH regenerating system. The final incubation mixtures contained 1 μM test compound, 0.5 mg/mL liver microsomal protein, 1 mM MgCL2, 1 mM NADP, 1 unit/mL isocitric dehydrogenase and 6 mM isocitric acid in 100 mM potassium phosphate buffer, pH 7.4. After incubation times of 0, 3, 6, 9, 15 and 30 minutes at 37° C., 300 μL of cold ACN (including internal standard) was added to 100 μL incubation mixture to terminate the reaction. Following precipitation and centrifugation, the amount of compound remaining in the samples were determined by LC-MS/MS. Controls of no NADPH regenerating system at zero and 30 minutes were also prepared and analyzed.

Sequence of human TLR8 (Q9NR97 27-1041): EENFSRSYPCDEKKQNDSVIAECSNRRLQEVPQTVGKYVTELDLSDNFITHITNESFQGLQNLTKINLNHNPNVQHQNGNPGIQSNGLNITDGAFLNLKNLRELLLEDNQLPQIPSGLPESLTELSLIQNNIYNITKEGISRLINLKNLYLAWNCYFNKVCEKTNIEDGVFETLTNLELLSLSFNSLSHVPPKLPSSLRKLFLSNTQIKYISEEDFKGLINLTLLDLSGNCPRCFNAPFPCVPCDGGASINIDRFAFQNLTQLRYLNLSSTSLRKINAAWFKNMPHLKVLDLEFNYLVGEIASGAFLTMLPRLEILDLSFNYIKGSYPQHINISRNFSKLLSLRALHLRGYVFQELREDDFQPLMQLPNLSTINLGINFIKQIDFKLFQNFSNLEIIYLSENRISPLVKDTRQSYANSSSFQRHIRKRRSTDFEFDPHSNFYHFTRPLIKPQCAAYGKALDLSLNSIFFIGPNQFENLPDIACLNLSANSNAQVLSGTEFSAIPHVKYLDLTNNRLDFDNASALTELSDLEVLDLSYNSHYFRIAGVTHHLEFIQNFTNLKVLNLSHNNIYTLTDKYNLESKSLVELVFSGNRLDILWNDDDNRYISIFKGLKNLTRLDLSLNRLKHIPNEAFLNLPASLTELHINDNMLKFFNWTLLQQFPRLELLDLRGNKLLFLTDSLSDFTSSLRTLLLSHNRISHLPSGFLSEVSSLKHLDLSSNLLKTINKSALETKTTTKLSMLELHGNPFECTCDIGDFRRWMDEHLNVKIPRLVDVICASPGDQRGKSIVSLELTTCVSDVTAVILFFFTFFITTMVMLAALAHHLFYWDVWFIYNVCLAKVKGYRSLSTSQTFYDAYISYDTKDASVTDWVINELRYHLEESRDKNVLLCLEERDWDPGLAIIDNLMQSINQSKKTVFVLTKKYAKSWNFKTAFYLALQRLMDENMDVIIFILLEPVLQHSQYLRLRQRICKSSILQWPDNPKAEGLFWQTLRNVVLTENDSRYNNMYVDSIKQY
Sequence of human TLR7 (Q9NYK1 27-1049): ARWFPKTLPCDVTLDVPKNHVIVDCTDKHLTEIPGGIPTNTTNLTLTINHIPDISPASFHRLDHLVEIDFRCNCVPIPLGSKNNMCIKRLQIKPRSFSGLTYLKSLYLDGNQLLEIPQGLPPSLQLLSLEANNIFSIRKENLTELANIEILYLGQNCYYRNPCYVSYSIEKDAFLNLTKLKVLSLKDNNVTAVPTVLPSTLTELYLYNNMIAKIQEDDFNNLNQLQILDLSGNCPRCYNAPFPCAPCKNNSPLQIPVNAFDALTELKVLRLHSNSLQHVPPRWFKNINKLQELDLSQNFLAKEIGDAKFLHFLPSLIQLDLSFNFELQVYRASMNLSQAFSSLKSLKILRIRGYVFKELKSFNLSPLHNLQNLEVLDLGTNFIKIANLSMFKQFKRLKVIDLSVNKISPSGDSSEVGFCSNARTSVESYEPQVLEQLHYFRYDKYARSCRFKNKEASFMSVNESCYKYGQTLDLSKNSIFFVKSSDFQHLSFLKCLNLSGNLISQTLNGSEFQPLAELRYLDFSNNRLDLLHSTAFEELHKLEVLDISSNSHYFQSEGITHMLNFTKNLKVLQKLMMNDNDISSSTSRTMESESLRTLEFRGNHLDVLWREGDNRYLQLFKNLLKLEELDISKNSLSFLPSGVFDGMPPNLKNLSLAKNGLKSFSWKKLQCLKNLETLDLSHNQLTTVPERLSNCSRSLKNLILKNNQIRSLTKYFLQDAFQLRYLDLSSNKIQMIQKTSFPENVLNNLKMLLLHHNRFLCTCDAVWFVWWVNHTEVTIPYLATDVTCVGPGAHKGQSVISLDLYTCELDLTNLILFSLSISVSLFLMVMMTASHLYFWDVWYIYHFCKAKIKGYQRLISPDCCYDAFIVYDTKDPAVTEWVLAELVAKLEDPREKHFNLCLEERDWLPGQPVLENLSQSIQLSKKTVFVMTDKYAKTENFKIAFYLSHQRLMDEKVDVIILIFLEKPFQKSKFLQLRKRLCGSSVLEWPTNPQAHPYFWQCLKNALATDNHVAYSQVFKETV
Sequence of hERG channel (Q12809 whole entry): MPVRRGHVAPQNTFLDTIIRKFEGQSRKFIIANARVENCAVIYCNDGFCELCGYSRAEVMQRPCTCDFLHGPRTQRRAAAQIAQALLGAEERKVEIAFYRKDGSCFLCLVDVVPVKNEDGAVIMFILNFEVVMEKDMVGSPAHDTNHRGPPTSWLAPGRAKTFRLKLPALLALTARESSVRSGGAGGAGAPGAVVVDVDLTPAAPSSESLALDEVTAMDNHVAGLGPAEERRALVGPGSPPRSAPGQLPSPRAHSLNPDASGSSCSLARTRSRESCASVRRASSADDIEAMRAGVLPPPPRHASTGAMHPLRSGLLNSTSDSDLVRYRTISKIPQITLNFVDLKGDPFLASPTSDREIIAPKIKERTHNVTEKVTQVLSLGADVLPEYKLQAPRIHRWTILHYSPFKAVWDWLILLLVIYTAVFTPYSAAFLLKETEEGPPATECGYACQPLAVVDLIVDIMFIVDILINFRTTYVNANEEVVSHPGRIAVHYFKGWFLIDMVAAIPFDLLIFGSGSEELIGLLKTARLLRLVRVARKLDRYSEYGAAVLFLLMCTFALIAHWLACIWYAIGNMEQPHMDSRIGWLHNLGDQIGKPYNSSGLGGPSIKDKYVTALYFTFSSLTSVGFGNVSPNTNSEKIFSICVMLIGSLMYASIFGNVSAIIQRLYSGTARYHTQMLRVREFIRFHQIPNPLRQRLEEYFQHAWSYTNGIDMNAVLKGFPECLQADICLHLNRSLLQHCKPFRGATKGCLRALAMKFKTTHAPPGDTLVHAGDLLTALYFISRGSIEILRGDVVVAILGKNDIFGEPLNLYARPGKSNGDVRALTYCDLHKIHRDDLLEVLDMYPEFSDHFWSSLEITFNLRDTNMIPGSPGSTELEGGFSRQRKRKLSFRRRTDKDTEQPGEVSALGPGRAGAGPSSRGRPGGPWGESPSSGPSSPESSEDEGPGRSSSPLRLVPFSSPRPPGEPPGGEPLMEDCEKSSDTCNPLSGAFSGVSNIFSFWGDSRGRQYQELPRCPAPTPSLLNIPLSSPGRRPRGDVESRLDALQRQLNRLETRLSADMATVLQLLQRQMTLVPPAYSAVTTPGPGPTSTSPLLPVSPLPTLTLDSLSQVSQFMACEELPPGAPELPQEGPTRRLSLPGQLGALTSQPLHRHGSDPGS

Row | SMILES | EC50 (human TLR7) [µM] | EC50 (human TLR8) [µM] | Selective index (human TLR8) | solubility thermodynamic (LYSA solubility) [µg/mL] | LYSA (LYSA solubility) [µg/mL] | Ames result [2] | also measured
1 | CS(=N)(=O)c1nc(N)c2[nH]c(=O)n(Cc3ccc(Cl)cc3)c2n1 (stereo not drawn) [Example 13, 6-Amino-9-[(4-chlorophenyl)methyl]-2-(methylsulfonimidoyl)-7H-purin-8-one] | 0.043 | 300 | 6977 | 10 (≈ 28.3 µM) |  |  | 
2 | CS(=O)(=O)c1nc(N)c2[nH]c(=O)n(Cc3ccccc3)c2n1 [Example S-1, reference compound] | 0.37 |  | >2703 |  | 0.5 |  | EC50 (human TLR8; HEK-Blue-hTLR8 cells, SEAP reporter, 20 hrs, read-out: HEK Blue hTLR-8 EC50): > 1000 µM; AUC0-inf [1]: 0.201 µM·h; CL [1]: 261 mL/min/kg; CO [1]: 534 nM; concentration at 4 h ([1]; 0.083 h): 534 nM; concentration at 4 h ([1]; 0.25 h): 236 nM; concentration at 4 h ([1]; 0.5 h): 125 nM; concentration at 4 h ([1]; 1 h): 38 nM; concentration at 4 h ([1]; 2 h): 9 nM
3 | CCS(=N)(=O)c1nc(N)c2[nH]c(=O)n(Cc3ccc(Cl)cc3)c2n1 (stereo not drawn) [Example 70, 6-Amino-9-[(4-chlorophenyl)methyl]-2-(ethylsulfonimidoyl)-7H-purin-8-one] | 0.057 | 90 | 1579 | 7 (≈ 19.1 µM) |  |  | 
4 | CCCS(=N)(=O)c1nc(N)c2[nH]c(=O)n(Cc3ccc(C)cc3)c2n1 (single isomer, unassigned) [Example 29-B, 6-Amino-2-(propylsulfonimidoyl)-9-(p-tolylmethyl)-7H-purin-8-one] |  |  |  |  | 11 | negative | Safety ratio (hERG IC20/EC50) (hERG channel; hERG IC20/EC50): >546; IC20 (hERG channel; read-out: hERG IC20): > 10 µM
5 | CS(=N)(=O)c1nc(N)c2[nH]c(=O)n(Cc3ccccc3)c2n1 (single isomer, unassigned) [Example 1-B, 6-Amino-9-benzyl-2-(methylsulfonimidoyl)-7H-purin-8-one] |  |  |  | 98 (≈ 308 µM) |  | negative | Human Liver Microsome Clearance [3]: <6.15 mL/min/kg
